# Laboratory results as given in US9700637B2, “Reaction-based fluorescent probes for detecting zinc” (Massachusetts Institute of Technology, priority 2013, dated 2017).
# Where “and” joins values, the source holds several entries; their conditions need not be identical. Identical values can stand only once.
# Tests used:
# [1] = Zinc-induced fluorescence response in cuvette (turn-on, quantum yield); assay type: physicochemical; conditions: for zinc-induced fluorescence response (turn-on): excess ZnCl2
# Protocol: FIG. 2 depicts the normalized fluorescent spectra of DA-ZP1-TPP (also referred to as Ac2-ZP1-TPP) and ZP1-TPP in the absence (dashed line) and presence (solid line) of excess ZnCl2. Inset: The y-axis is magnified to aid in the visualization of the ˜7-fold “turn-on” of ZP1-TPP.
# FIG. 20 depicts Zn(II)-dependent fluorescence signal enhancement of DA-ZP1-TPP. (a) Normalized fluorescence spectra of a 1 μM solution of DA-ZP1-TPP, in 50 mM PIPES buffer (pH 7) with 1 mM EDTA, 2 mM CaCl2, and 100 mM KCl, upon increasing concentrations of free zinc ions. (b) Zinc binding isotherm for the data in (a), normalized to the fluorescence signal under zinc saturating conditions (λex=495 nm).
# Spectra were acquired in 50 mM PIPES (pH 7) with 100 mM KCl. For this titration, a single excitation wavelength of λex=485 nm was used.
# The diacetylated version of ZP1-TPP, designated DA-ZP1-TPP, was readily prepared by reacting ZP1-TPP with acetic anhydride overnight at room temperature. Over the course of the reaction, the mixture turned from a dark, salmon-colored solution to a light, nearly colorless liquid, which was purified by HPLC. […] Addition of nanomolar concentrations of zinc ions results in a large increase in both the absorption λabs-Zn=510 nm) and fluorescence (λem-Zn=529 nm, FIG. 20a) spectral bands of DA-ZP1-TPP. These optical changes combine to yield a >140-fold increase in the fluorescence signal (ΦZn=0.75±0.03, FIG. 20). […] Whether the mode of zinc-mediated ester hydrolysis proceeds by internal or external hydroxide attack remains to be determined. […] Addition of a chelator (EDTA) attenuates the fluorescence signal ˜5-fold (Φ=0.15±0.02) in the cuvette (FIG. 22) with a concomitant redshift in the absorption spectrum (λabs=522 nm). Reversibility of the fluorescence signal is an important feature for zinc-responsive probes, because it allows confirmation that the observed increase in fluorescence signal is due to Zn(II) and not the result of an artifact. […]
# Using DA-ZP1-A3 as a model system, we assessed its photophysical and zinc-binding properties (FIG. 26). […]
# [2] = Octanol/aqueous buffer partition coefficient (modified shake-flask); assay type: physicochemical; conditions: octanol/water, buffered at pH 7 with 10 mM Tris
# Description: To understand better the limitations of TPP in directing fluorophores to mitochondria, we prepared two additional TPP-derivatives, one based on 6-carboxyfluorescein (FL-TPP) and one on coumarin 343 (C343-TPP). […] To test this hypothesis, we conducted live cell fluorescence imaging experiments with FL-TPP. […] Not only did FL-TPP fail to accumulate in mitochondria, it was cell-impermeable under our imaging conditions. In contrast, the cationic C343-TPP strongly colocalized with MitoTracker Red in live HeLa cells (Pearson's r=0.72±0.02). To quantify the effect of hydrophobicity in mitochondrial-targeting, we measured the octanol/aqueous buffer partition coefficient (log P) for our TPP constructs and two MitoTracker dyes. We then tabulated the log P, charge of the predominate species in solution at physiological pH, and cellular localization for each dye (Table 1). […] Along with cationic charge, a minimum level of lipophilicity must be reached in order to evade endo/lysosomal sequestration and enable effective mitochondrial targeting.
# [3] = Charge of predominate species in solution at physiological pH; assay type: physicochemical; conditions: physiological pH = 7.4
# HeLa cells = assay: Live cell fluorescence imaging: response to intracellular zinc (ZnPT/TPEN) and stability in cellulo; assay type: cell-based
# Protocol: FIG. 5 depicts live cell imaging of HeLa cells that were bathed in a 1 μM solution of DA-ZP1-TPP in dye and serum free DMEM media for 30 min at 37° C. and 5% CO2. […] There was minimal fluorescent signal from DA-ZP1-TPP, consistent with the quenched fluorescent form of the sensor (top, right).
# FIG. 24 depicts fluorescence images of live HeLa cells. HeLa cells were pretreated with a 1 μM solution of DA-ZP1-TPP in dye- and serum-free medium for 30 min (37° C., 5% CO2). […] The signal from MitoTracker Red (c) correlates well with the signal from the zinc-bound sensor (d). Pearson's r=0.64±0.1 (n=18). […]
# We used HeLa cells as a model system to evaluate the ability of DA-ZP1-TPP to target mitochondria and respond to changes in intracellular zinc levels. Live HeLa cells were pretreated with medium containing 1 μM DA-ZP1-TPP and 250 nM MitoTracker Red for 30 min (37° C., 5% CO2) prior to imaging (FIG. 24). […] Over a two-hour period, the fluorescence intensity from the sensor remained constant, implying that the acetylated form is stable against intracellular esterases (FIG. 24e). […] Addition of 100 μM TPEN attenuated the fluorescence signal by ˜2.4-fold (FIG. 24f). […] We anticipate that this strategy will be applicable to related families of fluorophores. […]
Compound,zinc-induced fluorescence response (turn-on) [1] [fold],log P [2],Charge of the predominate species in solution [3],response to changing intracellular zinc levels (HeLa cells; live HeLa cells),attenuation of fluorescence signal by EDTA ([1]; chelator (EDTA) added after zinc) [fold],"increase in fluorescence intensity on ZnPT (HeLa cells; live HeLa, 1 μM probe, 50 μM ZnPT)","period over which signal intensity was stable in cellulo (HeLa cells; live HeLa, 1 μM, no added zinc) [h]","attenuation of fluorescence signal by TPEN (HeLa cells; live HeLa, 100 μM TPEN after 50 μM ZnPT) [fold]"
O=C(NCC[P+](c1ccccc1)(c1ccccc1)c1ccccc1)c1ccc2c(c1)C1(OC2=O)c2cc(Cl)c(O)c(CN(Cc3ccccn3)Cc3ccccn3)c2Oc2c1cc(Cl)c(O)c2CN(Cc1ccccn1)Cc1ccccn1 [ZP1-TPP],~7,−0.11 ± 0.01,Zwitterion,did not respond significantly to changing intracellular zinc levels,,,,
CC(=O)Oc1c(Cl)cc2c(c1CN(Cc1ccccn1)Cc1ccccn1)Oc1c(cc(Cl)c(OC(C)=O)c1CN(Cc1ccccn1)Cc1ccccn1)C21OC(=O)c2ccc(C(=O)NCC[P+](c3ccccc3)(c3ccccc3)c3ccccc3)cc21 [DA-ZP1-TPP],> 140,0.74±0.18,+1,,~5,~12.1 fold and ~12 fold,2,~2.4
